In patent US12133855B2, “Lipid-like nanocomplexes and uses thereof” (Trustees of Tufts College, priority 2018, dated 2024):

Legend:
HeLa cells [1] = assay: GFP mRNA delivery (GFP+ cells); assay type: cell-based; conditions: LNP/mRNA=10/1; [mRNA]=0.86 μg mL^−1; 24 h exposure
Source text: Messenger RNA delivery has great potentials for cancer therapy, protein replacement therapy and neurological disorder treatments.^42 The intracellular delivery of mRNA using OCholB LNPs was studied using GFP mRNA and different cell lines (HeLa, B16F10, HEK-293, NIH/3T3 and Jurkat). The weight ratio of LNP/mRNA was optimized at first using HeLa cells. […] The weight ratio of LNP/mRNA=10/1 was then chose for the following mRNA delivery studies. […] Then the intracellular delivery efficiencies of all fully substituted OCholB LNPs were tested against HeLa cells, and Lpf2k and naked GFP mRNA were used as controls (LNP/mRNA=10/1; [mRNA]=0.86 μg mL^−1; 24 h exposure). […] As to the OCholB LNPs, 75-OCholB (62.0% of GFP^+ cells), 76-OCholB (79.8%), 77-OCholB (73.5%), 78-OCholB (67.1%), 80-OCholB (55.6%), 81-OCholB (51.6%) and 304-OCholB (52.1%) are all determined to be effective. Typical fluorescent images of mRNA/LNPs (mRNA/75-OCholB, mRNA/76-OCholB and mRNA/77-OCholB) treated HeLa cells are shown in FIG. 14C. Comparing to untreated HeLa cells, strong green fluorescent signals were recoded from nanoparticles incubated cells, which is consistent with the flow cytometry data as shown in FIG. 14D. Meanwhile, both 87-OCholB (6.1%) and 90-OCholB (2.5%) are found to be inefficient for GFP mRNA delivery into HeLa cells, which is consistent with the internalization studies using NR (FIG. 12C) and (−30)GFP-Cre protein (FIG. 12F) as the fluorescent reporters.

[2] = Thiol-triggered size variation of OCholB LNPs (DTT, cysteine; DLS); assay type: physicochemical; conditions: for increase in averaged hydrodynamic diameter: 24 h; for decrease in size: 20 μM L-cysteine, 6 h of incubation; for increase of relative size: first 2 h
Source text: The thiol-trigged degradation and dissociation of the OCholB LNPs were studied by time-dependent DLS measurements and TEM observation. […] The disruption of the vesicle structure is considered to be resulted from the thiol-exchange and disulfide bond cleavage reactions of OCholB lipidoids. We next investigated whether the thiol-containing molecules (e.g. albumin, cysteine, homocysteine, cysteinylglycine, etc.) in the serum may induce the structural disintegration of these disulfide bond-containing LNPs. The stabilities of LNPs in the presence of 20 μM of L-cysteine (Cys), which mimics the free thiols on the small- and macromolecules presented in the serum, were examined. […] While the degrees of size changes vary between lipidoids with different amine head groups, all lipidoids were more responsive to DTT (modeling intracellular conditions) than to Cysteine (modeling conditions in the blood serum).

[3] = test system: Jurkat (human T lymphocyte cells); assay: GFP mRNA delivery (GFP+ cells); assay type: cell-based; conditions: LNP/mRNA=10/1, [mRNA]=0.86 μg mL^−1, 24 h
Experimental: To examine the delivery spectrum of the newly developed LNPs, the GFP mRNA loaded OCholB LNPs were then challenged against other four types of cell lines. B16F10 (mouse melanoma cells), HEK 293 (human embryonic kidney cells), NIH 3T3 (mouse embryonic fibroblast cells) and Jurkat (human T lymphocyte cells) cells were tested (LNP/mRNA=10/1; [mRNA]=0.86 μg mL^−1; 24 h exposure) and the results are shown in FIG. 14D. As the positive control, Lpf2k turned out to be very efficient to deliver GFP mRNA into B16F10 (63.2% of GFP^+ cells), HEK 293 (80.1%) and NIH 3T3 (70.1%) cells, while slightly less efficient to Jurkat cell (28.7%), which is usually considered to be one of the most difficult-to-transfect cell lines. […] For example, 63.0%, 60.9%, 54.1% and 50.1% of GFP^+ cells were determined from mRNA/75-OCholB treated B16F10, HEK 293, NIH 3T3 and Jurkat cells; and the numbers for mRNA/76-OCholB treated cells were 70.7%, 75.8%, 24.1% and 7.7%, respectively. It was obvious that not only the types of lipidoids, but also the target cell lines could have huge impacts on the delivery efficacy. Overall, the positive control, Lpf2k, is a relatively high-activity broad-spectrum transfection reagent; most of the OCholB LNPs (6 out of 9) are also effective broad-spectrum transfection reagents under the tested conditions. […] It was expected that through further formulation optimization, such as adding excipients (helper lipids like small molecular phospholipids (e.g. DOPE and DSPC) and macromolecules lipids (e.g. PEG-DSPE and PEG-Ceramide)) into the LNPs and/or using more controllable self-assembly procedures, improved transfection efficiency of the fully substituted OCholB LNPs could be achieved.

HeLa cells [4] = assay: MTT cytotoxicity of mRNA-loaded nanoparticles; assay type: cell-based; conditions: for cell morphology (bright field images): 24 h of exposure; for cell viability: GFP mRNA loaded, lipidoid/mRNA=10/1, [mRNA]=0.86 μg mL^−1, 24 h
Experimental: All experiments were performed in quadruplicate.
Next, the MTT assay was conducted to examine the cytotoxicity of mRNA-loaded nanoparticles against HeLa cells.

HeLa cells [5] = assay: Internalization of Nile red loaded nanoparticles (NR+ cells); assay type: cell-based; conditions: 4 h of exposure
[6] = In vivo toxicity of blank OCholB LNPs (body weight, serum biochemistry); parameters: species or system Balb/c mice; conditions: blank LNPs 50 μg per injection, tail vein; for serum concentrations of creatinine, urea, AST and ALT: day 1 and 5, blood at day 14; for body weight vs untreated control group: day 1 and day 5, 14 days
Experimental: For in vivo toxicity studies, the body weights of untreated and nanoparticles injected Balb/c mice (housed in a temperature and humidity controlled facility with a 12 h light/dark cycle) were measured at day 1, 3, 5, 7, 9, 11, 13 and 14. Biological functions of kidney and liver were examined by the serum biochemical tests and concentrations of creatinine, urea, aspartate aminotransferase (AST), and alanine aminotransferase (ALT) were measured using corresponding detection kits (MilliporeSigma) following manufacturers' protocols.
The in vivo toxicity of the OCholB LNPs was further examined by measuring body weight change and biological functions of kidney and liver through serum biochemical tests using Balb/c mice. 4-6 weeks old Balb/c mice (n=3) were injected with blank 75-OCholB, 76-OCholB and 77-OCholB LNPs (50 μg LNPs for each injection) through tail vein at day 1 and day 5, body weights were monitored for 14 days, and blood were collected and analyzed at day 14.

CCN(CC)CCCN(CCC(=O)OCCSSCCNC(=O)OC1CCC2(C)C(=CCC3C2CCC2(C)C(C(C)CCCC(C)C)CCC32)C1)CCC(=O)OCCSSCCNC(=O)OC1CCC2(C)C(=CCC3C2CCC2(C)C(C(C)CCCC(C)C)CCC32)C1 (stereo not shown) [Lipidoid 81-OCholB]
GFP^+ cells (HeLa cells [1]): 51.6%

CC(C)CCCC(C)C1CCC2C3CC=C4CC(OC(=O)NCCSSCCOC(=O)CCN(CCC(=O)OCCSSCCNC(=O)OC5CCC6(C)C(=CCC7C6CCC6(C)C(C(C)CCCC(C)C)CCC76)C5)CCN(C)C)CCC4(C)C3CCC12C (stereo not shown) [Lipidoid 78-OCholB]
increase in averaged hydrodynamic diameter ([2]; 10 mM DTT): 4642.8% | GFP^+ cells (HeLa cells [1]): 67.1% | GFP^+ cells [3]: particular advantages over Lpf2k

CC(C)CCCC(C)C1CCC2C3CC=C4CC(OC(=O)NCCSSCCOC(=O)CCN(CCC(=O)OCCSSCCNC(=O)OC5CCC6(C)C(=CCC7C6CCC6(C)C(C(C)CCCC(C)C)CCC76)C5)CCN5CCCC5)CCC4(C)C3CCC12C (stereo not shown) [Lipidoid 76-OCholB]
decrease in size [2]: 14.6% | increase of relative size ([2]; 10 mM DTT): 498.5% | GFP^+ cells (HeLa cells [1]): 79.8% | cell morphology (bright field images) (HeLa cells [4]): no obvious variations | cell viability (HeLa cells [4]): 94.5% | NR^+ cells (HeLa cells [5]): 65.0% | serum concentrations of creatinine, urea, AST and ALT [6]: very similar to control mice | body weight vs untreated control group [6]: negligible differences | GFP^+ cells [3]: 7.7%

CC(C)CCCC(C)C1CCC2C3CC=C4CC(OC(=O)NCCSSCCOC(=O)CCN(CCC(=O)OCCSSCCNC(=O)OC5CCC6(C)C(=CCC7C6CCC6(C)C(C(C)CCCC(C)C)CCC76)C5)CCC5CCCN5C)CCC4(C)C3CCC12C (stereo not shown) [Lipidoid 77-OCholB]
decrease in size [2]: 7.2% | increase of relative size ([2]; 10 mM DTT): 1591.4% | GFP^+ cells (HeLa cells [1]): 73.5% | cell morphology (bright field images) (HeLa cells [4]): no obvious variations | cell viability (HeLa cells [4]): 100.1% | NR^+ cells (HeLa cells [5]): 90.3% | serum concentrations of creatinine, urea, AST and ALT [6]: very similar to control mice | body weight vs untreated control group [6]: negligible differences | GFP^+ cells [3]: particular advantages over Lpf2k

CC(C)CCCC(C)C1CCC2C3CC=C4CC(OC(=O)NCCSSCCOC(=O)CCN(C)CCN(CCN(C)CCC(=O)OCCSSCCNC(=O)OC5CCC6(C)C(=CCC7C6CCC6(C)C(C(C)CCCC(C)C)CCC76)C5)CCN(C)CCC(=O)OCCSSCCNC(=O)OC5CCC6(C)C(=CCC7C6CCC6(C)C(C(C)CCCC(C)C)CCC76)C5)CCC4(C)C3CCC12C (stereo not shown) [Lipidoid 304-OCholB]
increase in averaged hydrodynamic diameter ([2]; 10 mM DTT): 3849.6% | GFP^+ cells (HeLa cells [1]): 52.1%

CCN(CC)CCN(CCC(=O)OCCSSCCNC(=O)OC1CCC2(C)C(=CCC3C2CCC2(C)C(C(C)CCCC(C)C)CCC32)C1)CCC(=O)OCCSSCCNC(=O)OC1CCC2(C)C(=CCC3C2CCC2(C)C(C(C)CCCC(C)C)CCC32)C1 (stereo not shown) [Lipidoid 75-OCholB]
decrease in size [2]: 12.2% | increase in size ([2]; 10 mM DTT, 6 h): 1315.7% | increase in averaged hydrodynamic diameter ([2]; 10 mM DTT): 2872.4% | increase of relative size ([2]; 10 mM DTT): 566.4% | GFP^+ cells (HeLa cells [1]): 62.0% | cell morphology (bright field images) (HeLa cells [4]): no obvious variations | cell viability (HeLa cells [4]): 84.7% | NR^+ cells (HeLa cells [5]): 85.2% | serum concentrations of creatinine, urea, AST and ALT [6]: very similar to control mice | body weight vs untreated control group [6]: negligible differences | GFP^+ cells [3]: particular advantages over Lpf2k | GFP^+ cells ([3]; listed as mRNA/75-OCholB): 50.1%

CC(C)CCCC(C)C1CCC2C3CC=C4CC(OC(=O)NCCSSCCOC(=O)CCN(CCCN(C)C)CCC(=O)OCCSSCCNC(=O)OC5CCC6(C)C(=CCC7C6CCC6(C)C(C(C)CCCC(C)C)CCC76)C5)CCC4(C)C3CCC12C (stereo not shown) [Lipidoid 80-OCholB]
GFP^+ cells (HeLa cells [1]): 55.6%
